In paper PMC9077246, “Novel spirocyclic tranylcypromine derivatives as lysine-specific demethylase 1 (LSD1) inhibitors” (RSC Advances, 2018):
Where a name gives a salt, the structure may show the parent alone.

Experiments:
[1] = biological target: T1, Recombinant human LSD1 (172–852 aa) (Homo sapiens, UniProt O60341); experiment: biochemical
Description: (§1) LSD1 or LSD2 enzyme inhibition assay was performed with Lance Ultra LSD1 Histone H3-Lysine 4 Demethylase Assay kit (Perkin Elmer) according to the manufacturer's protocol. […] The test was carried out in triplicate. And the IC50 data was calculated using the software GraphPad Prism 5, and chosen the equation “sigmoidal dose–response (variable slope)” for curve fitting.

[2] = biological target: T1, Recombinant human LSD1 (172–852 aa); conditions: for LSD1 IC50 level in words: potency range in words; for fold more potent at LSD1 than 8a and 8b, respectively: 21a vs 8a, 21b vs 8b; for fold reduction in LSD1 inhibitory potency vs 23a, 23b: 24a, 24b vs 23a; for fold reduction in LSD1 inhibitory potency vs 28a, 28b: 29a, 29b vs 28a
Description: as §1

MAO-A = biological target: T2, MAO-A (Homo sapiens, UniProt P21397); experiment: biochemical; conditions: MAO-A, IC50, Table 1; mean ± SEM, eight-point experiments, three independent experiments
T2 sequence (P21397 1-527): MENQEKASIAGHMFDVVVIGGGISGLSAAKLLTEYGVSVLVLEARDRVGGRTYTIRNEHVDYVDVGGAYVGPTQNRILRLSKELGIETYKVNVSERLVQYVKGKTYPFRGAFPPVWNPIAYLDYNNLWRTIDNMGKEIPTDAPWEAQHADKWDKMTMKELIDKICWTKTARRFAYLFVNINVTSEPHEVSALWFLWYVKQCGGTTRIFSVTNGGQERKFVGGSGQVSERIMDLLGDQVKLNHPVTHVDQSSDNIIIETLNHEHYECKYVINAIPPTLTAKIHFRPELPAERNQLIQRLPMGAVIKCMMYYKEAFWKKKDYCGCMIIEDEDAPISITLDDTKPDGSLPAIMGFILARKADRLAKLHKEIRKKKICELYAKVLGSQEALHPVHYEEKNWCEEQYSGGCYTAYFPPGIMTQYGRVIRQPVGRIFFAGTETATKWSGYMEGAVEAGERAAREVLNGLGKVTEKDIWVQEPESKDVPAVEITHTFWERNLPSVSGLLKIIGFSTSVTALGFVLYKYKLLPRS
Description: (§2) MAO-A and MAO-B enzymes were purchased from Sigma-Aldrich and the inhibition assay was tested with Promega MAO-Glo™ Assay kit according to the manufacturer's protocol. The luminescent signals were detected using Envision (PerkinElmer). The test was carried out in triplicate. And the IC50 data was calculated using the software GraphPad Prism 5, and chosen the equation “sigmoidal dose–response (variable slope)” for curve fitting.

MAO-B = biological target: T3, MAO-B (Homo sapiens, UniProt P27338); experiment: biochemical; conditions: MAO-B, IC50, Table 1; mean ± SEM, eight-point experiments, three independent experiments
T3 sequence (P27338 1-520): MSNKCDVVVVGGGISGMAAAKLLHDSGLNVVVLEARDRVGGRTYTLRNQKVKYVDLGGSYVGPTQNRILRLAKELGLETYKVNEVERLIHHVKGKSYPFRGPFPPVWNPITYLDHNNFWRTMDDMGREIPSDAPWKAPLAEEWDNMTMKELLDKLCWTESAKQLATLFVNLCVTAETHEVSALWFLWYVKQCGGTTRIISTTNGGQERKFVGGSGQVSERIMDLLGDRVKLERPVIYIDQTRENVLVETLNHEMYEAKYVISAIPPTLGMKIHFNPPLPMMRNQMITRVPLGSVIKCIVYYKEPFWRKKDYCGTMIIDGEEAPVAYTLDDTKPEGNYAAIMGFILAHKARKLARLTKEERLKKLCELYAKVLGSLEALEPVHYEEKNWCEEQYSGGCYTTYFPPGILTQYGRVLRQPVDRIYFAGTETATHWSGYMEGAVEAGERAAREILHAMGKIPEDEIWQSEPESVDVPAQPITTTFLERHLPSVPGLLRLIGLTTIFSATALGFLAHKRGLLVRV
Description: as §2

Compound | IC50 [1] | IC50 (MAO-A) | IC50 (MAO-B) | other results
COc1ccc(CN[C@@H]2CC23CCc2cc(-c4ccccc4)ccc23)c(Cl)c1OC (stereo in doubt) [Compound 31a, (2R)-N-(2-Chloro-3,4-dimethoxybenzyl)-5′-phenyl-2′,3′-dihydrospiro[cyclopropane-1,1′-inden]-2-amine] | 8.9 ± 1.2 µM | – | – | LSD1 IC50 level in words [2]: single digit micromolar range
COc1ncccc1CN[C@@H]1CC12CCc1ccccc12 (stereo in doubt) [Compound 22a, (2R)-N-((2-Methoxypyridin-3-yl)methyl)-2′,3′-dihydrospiro[cyclopropane-1,1′-inden]-2-amine] | 0.032 ± 0.006 µM | > 100 µM | 47 ± 5 µM | fold less potent at LSD1 than the cis-isomer ([2]; 22a vs 22b): 3 fold
N[C@H]1CC12CCc1cc(-c3ccccc3)ccc12 (stereo in doubt) [Compound 28b, (2S)-5′-Phenyl-2′,3′-dihydrospiro[cyclopropane-1,1′-inden]-2-amine hydrochloride] | 2.7 ± 0.2 µM | – | – | –
O=C(CN[C@H]1CC12CCc1ccccc12)N1CCOCC1 (stereo in doubt) [Compound 25b, 2-(((2S)-2′,3′-Dihydrospiro[cyclopropane-1,1′-inden]-2-yl)amino)-1-morpholinoethan-1-one hydrochloride] | 22 ± 4 µM | – | – | –
COc1ccc(F)cc1CN[C@@H]1CC12CCc1cc(-c3ccc(F)cc3)ccc12 (stereo in doubt) [Compound 32a, (2R)-N-(5-Fluoro-2-methoxybenzyl)-5′-(4-fluorophenyl)-2′,3′-dihydrospiro[cyclopropane-1,1′-inden]-2-amine] | 2.6 ± 0.5 µM | – | – | LSD1 IC50 level in words [2]: single digit micromolar range
c1cncc(CN[C@@H]2CC23CCc2ccccc23)c1 (mixture of isomers) [Compound 21a, (2R)-N-(Pyridin-3-ylmethyl)-2′,3′-dihydrospiro[cyclopropane-1,1′-inden]-2-amine] | 0.017 ± 0.003 µM | 10.8 ± 1.1 µM | 15 ± 1 µM | fold more potent at LSD1 than 8a and 8b, respectively [2]: 10 fold
COc1ccc(Br)cc1CN[C@H]1CC12CCc1ccccc12 (stereo in doubt) [Compound 16b, (2S)-N-(5-Bromo-2-methoxybenzyl)-2′,3′-dihydrospiro[cyclopropane-1,1′-inden]-2-amine] | – | 0.39 ± 0.19 µM | 7.7 ± 3.8 µM | –
COc1ccc(F)cc1CN[C@@H]1CC12CCc1cc(-c3ccccc3)ccc12 (stereo in doubt) [Compound 30a, (2R)-N-(5-Fluoro-2-methoxybenzyl)-5′-phenyl-2′,3′-dihydrospiro[cyclopropane-1,1′-inden]-2-amine] | 1.7 ± 0.1 µM | – | – | LSD1 IC50 level in words [2]: single digit micromolar range
Fc1ccccc1CN[C@H]1CC12CCc1ccccc12 (stereo in doubt) [Compound 15b, (2S)-N-(2-Fluorobenzyl)-2′,3′-dihydrospiro[cyclopropane-1,1′-inden]-2-amine] | – | 2.5 ± 0.1 µM | 32 ± 3 µM | –
Fc1cccnc1CN[C@H]1CC12CCc1ccccc12 (stereo in doubt) [Compound 24b, (2S)-N-((3-Fluoropyridin-2-yl)methyl)-2′,3′-dihydrospiro[cyclopropane-1,1′-inden]-2-amine] | 0.47 ± 0.02 µM | – | – | fold reduction in LSD1 inhibitory potency vs 23a, 23b [2]: ≥ 4 fold
COc1ccccc1CN[C@@H]1CC12CCc1ccccc12 (stereo in doubt) [Compound 14a, (2R)-N-(2-Methoxybenzyl)-2′,3′-dihydrospiro[cyclopropane-1,1′-inden]-2-amine] | – | 5.9 ± 1.1 µM | 12 ± 1 µM | –
Cl.N[C@@H]1CC12CCc1cc(-c3ccc(F)cc3)ccc12 (stereo in doubt) [Compound 29a, (2R)-5′-(4-Fluorophenyl)-2′,3′-dihydrospiro[cyclopropane-1,1′-inden]-2-amine hydrochloride] | 0.3 ± 0.01 µM | – | – | fold reduction in LSD1 inhibitory potency vs 28a, 28b [2]: approximately 3 fold
COc1ccc(CNC2CC23CCc2ccccc23)cc1OC [Compound 19b, (2S)-N-(3,4-Fimethoxybenzyl)-2′,3′-dihydrospiro[cyclopropane-1,1′-inden]-2-amine] | – | 3.1 ± 0.2 µM | 27 ± 4 µM | –
NC1CCC(N[C@@H]2C[C@H]2c2ccccc2)CC1 (stereo partly drawn) [Compound 6, N1-[(1R, 2S)-2-phenylcyclopropyl]cyclohexane-1,4-diamine dihydrochloride, reference compound] | – | > 100 µM | – | –
COc1ncccc1CN[C@H]1CC12CCc1ccccc12 (stereo in doubt) [Compound 22b, (2S)-N-((2-Methoxypyridin-3-yl)methyl)-2′,3′-dihydrospiro[cyclopropane-1,1′-inden]-2-amine] | 0.01 ± 0.005 µM | > 100 µM | 68 ± 8 µM | –
COc1ccccc1CN[C@H]1CC12CCc1ccccc12 (stereo in doubt) [Compound 14b, (2S)-N-(2-Methoxybenzyl)-2′,3′-dihydrospiro[cyclopropane-1,1′-inden]-2-amine] | – | 1.7 ± 0.3 µM | 70 ± 35 µM | –
c1cncc(CN[C@H]2CC23CCc2ccccc23)c1 (mixture of isomers) [Compound 21b, (2S)-N-(Pyridin-3-ylmethyl)-2′,3′-dihydrospiro[cyclopropane-1,1′-inden]-2-amine] | 0.02 ± 0.003 µM | 6 ± 1.1 µM | 28 ± 6 µM | fold more potent at LSD1 than 8a and 8b, respectively [2]: 39 fold
COc1ccc(CN[C@@H]2CC23CCc2ccccc23)c(Cl)c1OC (stereo in doubt) [Compound 20a, (2R)-N-(2-Chloro-3,4-dimethoxybenzyl)-2′,3′-dihydrospiro[cyclopropane-1,1′-inden]-2-amine] | – | 1.4 ± 0.1 µM | 20 ± 1 µM | –
O=C(CN[C@@H]1CC12CCc1ccccc12)N1CCOCC1 (stereo in doubt) [Compound 25a, 2-(((2R)-2′,3′-Dihydrospiro[cyclopropane-1,1′-inden]-2-yl)amino)-1-morpholinoethan-1-one hydrochloride] | 1.4 ± 0.1 µM | – | – | –
COc1ccc(CNC2CC23CCc2ccccc23)cc1OC [Compound 19a, (2R)-N-(3,4-Fimethoxybenzyl)-2′,3′-dihydrospiro[cyclopropane-1,1′-inden]-2-amine] | – | 11.7 ± 2.4 µM | 15 ± 2 µM | –
COc1ccc(Br)cc1CN[C@@H]1CC12CCc1ccccc12 (stereo in doubt) [Compound 16a, (2R)-N-(5-Bromo-2-methoxybenzyl)-2′,3′-dihydrospiro[cyclopropane-1,1′-inden]-2-amine] | – | 3.7 ± 0.8 µM | 1.2 ± 0.2 µM | –
COc1ccc(CN[C@H]2CC23CCc2ccccc23)c(Cl)c1OC (stereo in doubt) [Compound 20b, (2S)-N-(2-Chloro-3,4-dimethoxybenzyl)-2′,3′-dihydrospiro[cyclopropane-1,1′-inden]-2-amine] | – | 5 ± 1.8 µM | 7 ± 0.7 µM | –
c1ccc(CN[C@@H]2CC23CCc2ccccc23)cc1 (mixture of isomers) [Compound 13a, (2R)-N-Benzyl-2′,3′-dihydrospiro[cyclopropane-1,1′-inden]-2-amine] | 3.3 ± 0.6 µM | – | – | –
Cl.N[C@H]1CC12CCc1cc(-c3ccc(F)cc3)ccc12 (stereo in doubt) [Compound 29b, (2S)-5′-(4-Fluorophenyl)-2′,3′-dihydrospiro[cyclopropane-1,1′-inden]-2-amine hydrochloride] | 6 ± 0.8 µM | – | – | fold reduction in LSD1 inhibitory potency vs 28a, 28b [2]: approximately 3 fold
COc1ccc(F)cc1CN[C@H]1CC12CCc1cc(-c3ccccc3)ccc12 (stereo in doubt) [Compound 30b, (2S)-N-(5-Fluoro-2-methoxybenzyl)-5′-phenyl-2′,3′-dihydrospiro[cyclopropane-1,1′-inden]-2-amine] | 4.4 ± 0.3 µM | – | – | LSD1 IC50 level in words [2]: single digit micromolar range
Fc1ccccc1CN[C@@H]1CC12CCc1ccccc12 (mixture of isomers) [Compound 15a, (2R)-N-(2-Fluorobenzyl)-2′,3′-dihydrospiro[cyclopropane-1,1′-inden]-2-amine] | – | 4.8 ± 0.5 µM | 9.8 ± 2.3 µM | –
Fc1cccnc1CN[C@@H]1CC12CCc1ccccc12 (stereo in doubt) [Compound 24a, (2R)-N-((3-Fluoropyridin-2-yl)methyl)-2′,3′-dihydrospiro[cyclopropane-1,1′-inden]-2-amine] | 0.25 ± 0.01 µM | – | – | fold reduction in LSD1 inhibitory potency vs 23a, 23b [2]: ≥ 4 fold
